US7683055B2, “Lanthionine-related compounds for the treatment of inflammatory diseases” (Oklahoma Medical Research Foundation, priority 2006, dated 2010)

Key:
RAW 264.7 macrophages = assay: LPS-stimulated nitrite production in RAW 264.7 macrophages; format: cell-based; conditions: 24-48 h
Experimental: Primary astrocytes were cultured from neonatal R6/2 transgenic mouse pups (“Htt+”) which are the standard murine model for Huntington's disease (animals commercially obtained from Jackson Labs) or nontransgenic littermates. For RAW cell studies, RAW264.7 macrophages were obtained commercially from American Type Culture Collection. RAW 264.7 macrophages were grown in DMEM plus 10% FBS and 1% Pen/Strep. Cells were maintained in culture according to published methods. Cells were treated with +/−[…] bacterial lipopolysaccharide serotype 0127:B8 (Sigma Chemical)+/−various concentrations of (R)-LKE1 for 24-48 h. (R)-LKE1 was added 30 minutes prior to LPS challenge. Nitrite was measured in the cell culture medium using the Griess diazotization assay. Cells were lysed and Western blots performed for protein expression or in other experiments for ribonuclease protection assays.

NSC-34 cells = assay: NSC-34 viability after H2O2 challenge (tetrazolium reduction); format: cell-based, mouse; conditions: H2O2 challenge 24 h
Experimental: NSC-34 cells were challenged directly with H2O2 for 24 h and the viability was assessed by tetrazolium reduction assay.
Furthermore, the invention contemplates that cytoprotection might be achieved by providing metabolic precursors to LK, rather than direct addition of the compound. For example, the inventor has studied the effects of NSC-34 cells treated with ethyl pyruvate in the presence or absence of lanthionine for 6 h prior to challenge with H2O2 and has assayed the viability of these cells 24 h later (FIG. 10). As reported in previous studies, ethyl pyruvate alone was protective against peroxide-induced cell death (Desagher et al., 1997; Nakamichi et al., 2005) with complete protection at ethyl pyruvate concentrations >1 mM (approximately 2-fold higher than ambient cell culture medium pyruvate concentrations; data not shown).
(R)-LKE1 protects NSC-34 motoneuron x neuroblastoma hybrid cells from hydrogen peroxide toxicity (FIG. 4). Cells were treated with the indicated concentration of (R)-LKE1. Thirty minutes later cells were challenged with the indicated concentration of hydrogen peroxide. Cell viability was assayed 24 hours later by tetrazolium reduction using a commercially available kit (Promega).
NSC-34 motor neuron-like cells, derived through the fusion of a neuroblastoma cell line with embryonic mouse motor neurons (Cashman et al., 1992), were grown in Dulbeco's modified essential medium (DMEM) plus 5% fetal bovine serum (FBS) and 1% penicillin plus 1% streptomycin (Pen/Strep). Recombinant TNFα and interferon gamma (IFNγ) were purchased from BD Biosciences (Pasadena Calif. USA). Lanthionine was purchased from Sequoia Research Products Ltd. (Pangbourne, UK). All other reagents were of the highest available commercial purity.
NSC-34 cells were exposed to 1 mM H2O2 with or without ethyl-pyruvate and/or lantionine (LK).

G93A-SOD1 mice = assay: G93A-SOD1 mouse model of ALS (rotarod, weight); format: in vivo; conditions: 100 mg/kg i.p. 5 days/week from day 90
From the text: Transgenic mice. Mice expressing high copy numbers of human mutant G93A-SOD1 (SOD1^G93A mice) were obtained from Jackson Laboratories [Bar Harbor Me. USA; strain designation B6SJL-TgN-(SOD1 G93A)-1-Gur] (Hensley et al., 2002; Hensley et al., 2003; West et al., 2004; Hensley et al., 2006). Transgenic mice were maintained in the hemizygous state by mating SOD1^G93A males with B6SJL-TGN females. Animals were housed in the Oklahoma Medical Research Foundation Laboratory Animal Resource Center.
Mice were trained to a rotarod task at 80 d of age. In this task mice were placed on a horizontal rod that rotates with acceleration at 10 rpm from rest (Hensley et al., 2002; Hensley et al., 2003; West et al., 2004). The time was recorded at which each mouse fell from the rotarod and the test was repeated four times on each trial date. The closest three performance times were averaged for each mouse on each day. For experimental drug treatments mice were injected with LKE at 100 mg/kg/day i.p. Monday-Friday beginning at 90 d. Control animals received saline vehicle. Rotarod performance and weights were recorded at 10 day intervals until death. Animals were euthanized when unable to right themselves within 10 seconds of being placed on their side, or when unable to perform the rotarod task.

For CCOC(=O)[C@@H]1CSCC(C(=O)O)=N1 [(R)-LKE1], the “inhibition of LPS-stimulated nitric oxide production” value (RAW 264.7 macrophages) was “inhibited LPS stimulated nitric oxide production”, the “protection from H2O2-induced cell death” value (NSC-34 cells) was “protected NSC-34 cells from direct oxidative stress-induced cell death in a dose dependent fashion” and the rotarod performance (G93A-SOD1 mice) was “improved”. The weight loss (G93A-SOD1 mice) was “inhibited weight loss”.
